According to patent US20120157401A1, “METHODS FOR TREATING NEUROFIBROMATOSIS” (PTC Therapeutics, Inc., priority 2009, published 2012):

tested on: hypoxia-inducible endogenous VEGF expression; test: Hypoxia-inducible endogenous VEGF expression ELISA in HeLa cells, dose-response EC50 (Table 3); assay type: cell-based, human; conditions: HeLa cells, hypoxic conditions (1% O2), 24-48 hours, VEGF in conditioned media; read-out: ELISA EC50
Procedure, shortened: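 HeLa cells kept 24-48 h under hypoxia (1% O2, 5% CO2, nitrogen balance) with or without compound, e.g. seven concentrations; secreted VEGF in conditioned medium quantified by ELISA against a standard curve. Parallel Cell Titer Glo viability under identical conditions excludes cytotoxicity.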

| SMILES | EC50 [µM] |
| --- | --- |
| Cc1ccc(C2c3[nH]c4ccc(Br)cc4c3CCN2C(=O)Oc2ccc(F)cc2)cc1 (stereo not drawn) [Compound 403] | < 0.008 |
| COC(=O)c1ccc(C2c3[nH]c4ccc(Cl)cc4c3CCN2C(=O)Oc2ccc(F)cc2)cc1 (stereo not drawn) [Compound 579] | < 0.008 |
| CC(C)c1ccc(C2c3[nH]c4ccc(Br)cc4c3CCN2C(=O)Oc2ccc(Cl)cc2)cc1 (stereo not drawn) [Compound 572] | < 0.008 |

same assay, conditions: Homo sapiens, HeLa, read-out: ELISA EC50 μM

| SMILES | EC50 [µM] |
| --- | --- |
| CN1CCCC(COc2ccc(C3c4[nH]c5ccc(Cl)cc5c4CCN3C(=O)Oc3ccc(F)cc3)cc2)C1 (stereo not drawn) [Compound 932] | < 0.008 |
| O=C(Oc1ccc(Cl)cc1)N1CCc2c([nH]c3ccc(Cl)cc23)[C@@H]1c1ccc(OC2CCN(C[C@H](O)CO)CC2)cc1 [Compound 1704] | 0.008 to 0.04 |
| O=C1NC2CSC(CCCCC(=O)OCCOc3ccc(C4c5[nH]c6ccc(Cl)cc6c5CCN4C(=O)Oc4ccc(Cl)cc4)cc3)C2N1 (stereo not drawn) [Compound 544] | < 0.008 |
| CN(C)CCN(C)CCCOc1ccc([C@H]2c3[nH]c4ccc(Cl)cc4c3CCN2C(=O)Oc2ccc(Cl)cc2)cc1 [Compound 1611] | < 0.008 |
| O=C(CN1CCOCC1)Nc1ccc(C2c3[nH]c4ccc(Cl)cc4c3CCN2C(=O)Oc2ccc(Cl)cc2)cc1 (stereo not drawn) [Compound 454] | 0.008 to 0.04 |
| O=C(Oc1ccc(F)cc1)N1CCc2c([nH]c3ccc(Cl)cc23)C1c1ccc(OCCCCCCNCCO)cc1 (stereo not drawn) [Compound 772] | < 0.008 |
| COc1ccc(OC(=O)N2CCc3c([nH]c4ccc(Cl)cc34)C2c2ccc(OCCCN3CCOCC3)cc2)cc1 (stereo not drawn) [Compound 1030] | 0.008 to 0.04 |
| O=C(Oc1ccc(Cl)cc1)N1CCc2c([nH]c3ccc(Cl)cc23)C1c1ccc(OCC(O)CN2CCCC2)cc1 (stereo not drawn) [Compound 462] | 0.008 to 0.04 |
| COc1cc(C2c3[nH]c4ccc(Cl)cc4c3CCN2C(=O)Oc2ccc(C)cc2)ccc1OCCCN1CCOCC1 (stereo not drawn) [Compound 1132] | 0.008 to 0.04 |
| O=C(Oc1ccc(F)cc1)N1CCc2c([nH]c3ccc(Cl)cc23)C1c1ccc(OCCCCCCN2CCOCC2)cc1 (stereo not drawn) [Compound 776] | < 0.008 |
| CN(C)CC(=O)Nc1ccc(C2c3[nH]c4ccc(Cl)cc4c3CCN2C(=O)Oc2ccc(Cl)cc2)cc1 (stereo not drawn) [Compound 491] | 0.04 to 0.2 |
| O=C(Oc1ccc(Cl)cc1)N1CCc2c([nH]c3ccc(Cl)cc23)[C@@H]1c1ccc(OCCC(O)CN(CCO)CCO)cc1 (stereo partly drawn) [Compound 1280] | 0.008 to 0.04 |
| O=C(Oc1ccc(Cl)cc1)N1CCc2c([nH]c3ccc(Cl)cc23)C1c1ccc(OCCCCCCNCCCn2ccnc2)cc1 (stereo not drawn) [Compound 789] | 0.04 to 0.2 |
| O=C(Oc1ccc(Cl)cc1)N1CCc2c([nH]c3ccc(Cl)cc23)C1c1ccc(OCCCOCCN2CCOCC2)cc1 (stereo not drawn) [Compound 1555] | < 0.008 |
| CN1CCCC(COc2ccc(C3c4[nH]c5ccc(Cl)cc5c4CCN3C(=O)Oc3ccc(Cl)cc3)cc2)C1 (stereo not drawn) [Compound 966] | 0.008 to 0.04 |
| CC(C)NCCCOc1ccc(C2c3[nH]c4ccc(Cl)cc4c3CCN2C(=O)Oc2ccc(Cl)cc2)cc1 (stereo not drawn) [Compound 953] | 0.008 to 0.04 |
| COCCN(C)CCCOc1ccc(C2c3[nH]c4ccc(Cl)cc4c3CCN2C(=O)Oc2ccc(F)cc2)cc1 (stereo not drawn) [Compound 992] | 0.04 to 0.2 |

same assay, conditions: Homo sapiens; HeLa cells, hypoxic conditions (1% O2), 24-48 hours, VEGF in conditioned media; read-out: ELISA EC50

| SMILES | EC50 [µM] |
| --- | --- |
| O=C(Oc1ccc(Cl)cc1)N1CCc2c([nH]c3ccc(Cl)cc23)C1c1ccc(OCC(O)CO)cc1 (stereo not drawn) [Compound 629] | < 0.008 |
| COCCOCCOc1ccc(C2c3[nH]c4ccc(Cl)cc4c3CCN2C(=O)Oc2ccc(C)cc2)cc1 (stereo not drawn) [Compound 677] | 0.008 to 0.04 |
| COc1ccc(C2c3[nH]c4ccc(Cl)cc4c3CCN2C(=O)Oc2ccc(C)cc2)cc1F (stereo not drawn) [Compound 1196] | 0.008 to 0.04 |
| O=C(Oc1ccc(F)cc1)N1CCc2c([nH]c3ccc(Cl)cc23)C1c1ccc(OCC(O)Cn2nccn2)cc1 (stereo not drawn) [Compound 1067] | 0.008 to 0.04 |
| O=C(Oc1ccccc1)N1CCc2c([nH]c3ccc(Cl)cc23)C1c1ccc(OCCCn2ccnc2)cc1 (stereo not drawn) [Compound 911] | < 0.008 |
| COCCOCCOc1ccc(C2c3[nH]c4ccc(Cl)cc4c3CCN2C(=O)Oc2ccc(F)cc2)cc1 (stereo not drawn) [Compound 673] | 0.008 to 0.04 |
| COc1ccc(C2c3[nH]c4ccc(Cl)cc4c3CCN2C(=O)Oc2ccc(Cl)cc2)cc1F (stereo not drawn) [Compound 1199] | 0.008 to 0.04 |
| O=C(Oc1ccccc1Cl)N1CCc2c([nH]c3ccc(Cl)cc23)C1c1ccc(F)cc1 (stereo not drawn) [Compound 588] | 0.04 to 0.2 |
| COc1cc(C2c3[nH]c4ccc(Cl)cc4c3CCN2C(=O)Oc2ccc(Cl)cc2)ccc1OCCCCn1cncn1 (stereo not drawn) [Compound 1088] | 0.008 to 0.04 |
| COc1ccc(C2c3[nH]c4ccc(OCc5ccccc5)cc4c3CCN2C(=O)Oc2ccc(Cl)cc2)cc1 (stereo not drawn) [Compound 616] | 0.2 to 1 |
| O=C(O)c1ccc(C2c3[nH]c4ccc(Cl)cc4c3CCN2C(=O)Oc2ccc(F)cc2)cc1 (stereo not drawn) [Compound 581] | > 1 |
| O=C(Oc1ccc(Cl)cc1)N1CCc2c([nH]c3ccc(Cl)cc23)C1c1ccc(OCCCn2nccn2)cc1 (stereo not drawn) [Compound 1016] | > 1 |
| O=C(Oc1ccc(Cl)cc1)N1CCc2c([nH]c3ccc(Cl)cc23)[C@@H]1c1ccc(OCCCO)cc1 [Compound 1250] | < 0.008 |
| O=C(Oc1ccc(Cl)cc1)N1CCc2c([nH]c3ccc(Cl)cc23)C1c1ccc(OCCCn2ccnc2)cc1 (stereo not drawn) [Compound 917] | < 0.008 |
| O=C(Oc1ccc(Cl)cc1)N1CCc2c([nH]c3ccc(Cl)cc23)[C@@H]1c1ccc(OCCCn2nccn2)cc1 [Compound 1129] | < 0.008 |
| Cc1ccc2[nH]c3c(c2c1)CCN(C(=O)Oc1ccc(Cl)cc1)C3c1ccc(C(C)C)cc1 (stereo not drawn) [Compound 344] | 0.008 to 0.04 |
| CC1(C)OC[C@H](CCOc2ccc(C3c4[nH]c5ccc(Cl)cc5c4CCN3C(=O)Oc3ccc(Cl)cc3)cc2)O1 (stereo partly drawn) [Compound 1162] | < 0.008 |

| SMILES | EC50 [µM] |
| --- | --- |
| COC(=O)c1ccc(C2c3[nH]c4ccc(Br)cc4c3CCN2C(=O)Oc2ccc(F)cc2)cc1 (stereo not drawn) [Compound 592] | < 0.008 |
| O=C(Oc1ccccc1)N1CCc2c([nH]c3ccc(Cl)cc23)C1c1ccc(OCCCn2cncn2)cc1 (stereo not drawn) [Compound 891] | < 0.008 |
| COc1ccc(C2c3[nH]c4ccc(Cl)cc4c3CCN2C(=O)Oc2ccccc2)cc1 (stereo not drawn) [Compound 60] | 0.008 to 0.04 |
| O=C(Oc1ccccc1Cl)N1CCc2c([nH]c3ccc(Cl)cc23)C1c1ccc(OCC2OCCO2)cc1 (stereo not drawn) [Compound 1052] | 0.008 to 0.04 |
| O=C(Oc1ccc(F)cc1)N1CCc2c([nH]c3ccc(Cl)cc23)C1c1ccc(OCCn2ccnc2)cc1 (stereo not drawn) [Compound 835] | 0.04 to 0.2 |
| O=C(Oc1ccc(Cl)cc1)N1CCc2c([nH]c3ccc(Cl)cc23)[C@@H]1c1ccc(OCC(CO)CO)cc1 [Compound 1209] | < 0.008 |
| COc1ccc(OC(=O)N2CCc3c([nH]c4ccc(Cl)cc34)C2c2ccc(OCC(N)=O)cc2)cc1 (stereo not drawn) [Compound 1216] | 0.008 to 0.04 |
| O=C(Oc1ccccc1)N1CCc2c([nH]c3ccc(Cl)cc23)C1c1ccc(OCCCO)cc1 (stereo not drawn) [Compound 1062] | < 0.008 |
| Cc1ccc(OC(=O)N2CCc3c([nH]c4ccc(Cl)cc34)[C@@H]2c2ccc(OCC(C)(CO)CO)cc2)cc1 [Compound 1297] | 0.008 to 0.04 |
| O=C(Oc1ccccc1)N1CCc2c([nH]c3ccc(Cl)cc23)C1c1ccc(OCC2OCCO2)cc1 (stereo not drawn) [Compound 1050] | < 0.008 |
| O=C(Oc1ccc(Cl)cc1)N1CCc2c([nH]c3ccc(Cl)cc23)C1c1ccc(OCCCI)cc1 (stereo not drawn) [Compound 617] | 0.008 to 0.04 |
| C=CCOc1ccc(C2c3[nH]c4ccc(Cl)cc4c3CCN2C(=O)Oc2ccc(Cl)cc2)cc1 (stereo not drawn) [Compound 999] | < 0.008 |
| Cc1cnc(NCCOc2ccc(C3c4[nH]c5ccc(Cl)cc5c4CCN3C(=O)Oc3ccc(F)cc3)cc2)s1 (stereo not drawn) [#838] | < 0.008 |
| O=C(Oc1ccc(Cl)cc1)N1CCc2c([nH]c3ccc(Cl)cc23)C1c1ccc(OCCCCCCn2cncn2)cc1 (stereo not drawn) [Compound 791] | < 0.008 |
| O=C(Oc1ccc(Cl)cc1)N1CCc2c([nH]c3ccc(Cl)cc23)C1c1ccc(OCCCO)cc1 (stereo not drawn) [Compound 1111] | < 0.008 |
| O=C(Oc1ccc(Cl)cc1)N1CCc2c([nH]c3ccc(Cl)cc23)C1c1ccc(OCCCn2ccnn2)cc1 (stereo not drawn) [Compound 417] | < 0.008 |
| COc1ccc(C2c3[nH]c4ccc(Cl)cc4c3CCN2C(=O)Oc2ccc(F)cc2)c(F)c1 (stereo not drawn) [Compound 1265] | 0.008 to 0.04 |

same assay, conditions: Homo sapiens; HeLa cells, hypoxic conditions (1% O2), VEGF ELISA of conditioned media; read-out: ELISA EC50

| SMILES | EC50 [µM] |
| --- | --- |
| O=C(Oc1ccc(Cl)cc1)N1CCc2c([nH]c3ccc(Cl)cc23)C1c1ccc(OC2CCOCC2)cc1 (stereo not drawn) [Compound 1578] | < 0.008 |
| COCCOC(=O)NCC(O)CCOc1ccc([C@H]2c3[nH]c4ccc(Cl)cc4c3CCN2C(=O)Oc2ccc(C)cc2)cc1 (stereo partly drawn) [Compound 1645] | < 0.008 |
| CCOC(=O)NCC(O)CCOc1ccc([C@H]2c3[nH]c4ccc(Cl)cc4c3CCN2C(=O)Oc2ccc(Cl)cc2)cc1 (stereo partly drawn) [Compound 1636] | < 0.008 |
| CC(C)C(=O)NCC(O)COc1ccc(C2c3[nH]c4ccc(Cl)cc4c3CCN2C(=O)Oc2ccc(Cl)cc2)cc1 (stereo not drawn) [Compound 1559] | 0.008 to 0.04 |
| O=C(Oc1ccc(Cl)cc1)N1CCc2c([nH]c3ccc(Cl)cc23)[C@@H]1c1ccc(OC2COC2)cc1 [Compound 1701] | < 0.008 |
| CC(=O)Oc1ccc([C@H]2c3[nH]c4ccc(Cl)cc4c3CCN2C(=O)Oc2ccc(Cl)cc2)cc1 [Compound 1538] | < 0.008 |
| [H]/N=c1\scnn1CCOc1ccc(C2c3[nH]c4ccc(Cl)cc4c3CCN2C(=O)Oc2ccc(F)cc2)cc1 (stereo not drawn) [Compound 1415] | < 0.008 |
| CCC(CO)(CO)COc1ccc(C2c3[nH]c4ccc(Br)cc4c3CCN2C(=O)Oc2ccc(F)cc2)cc1 (stereo not drawn) [Compound 1357] | < 0.008 |
| CCCOC(=O)NCC(O)CCOc1ccc([C@H]2c3[nH]c4ccc(Cl)cc4c3CCN2C(=O)Oc2ccc(Cl)cc2)cc1 (stereo partly drawn) [Compound 1666] | < 0.008 |
| O=C(Oc1ccc(Cl)cc1)N1CCc2c([nH]c3ccc(Cl)cc23)[C@H]1c1ccc(OCC[C@H](O)CO)cc1 [Compound 1330] | > 1 |
| CCCOC(=O)NCC(O)CCOc1ccc([C@H]2c3[nH]c4ccc(Cl)cc4c3CCN2C(=O)Oc2ccc(C)cc2)cc1 (stereo partly drawn) [Compound 1644] | < 0.008 |
| C[Si](C)(C)CCS(=O)(=O)N1CCC(Oc2ccc([C@H]3c4[nH]c5ccc(Cl)cc5c4CCN3C(=O)Oc3ccc(Cl)cc3)cc2)CC1 [Compound 1652] | < 0.008 |
